Here are results for 43 molecules from ChEMBL document CHEMBL3817828, “Design, synthesis and evaluation of novel tetrahydrothieno[3,2-c]pyridine derivatives as potent smoothened antagonists” (Medchemcomm, 2016).

A short description of experiment [1]: Inhibition of Hh receptor (unknown origin) expressed in SAG-stimulated mouse NIH3T3 cells incubated for 24 hrs by Gli-luciferase reporter gene assay. Type of experiment: cell-based. The following applies: NIH3T3, 24 h. In general terms: Reporter assays use an easily measured gene product as a stand-in for the process of interest.
For a further experiment, the target named is Protein smoothened (Homo sapiens, UniProt Q99835). The experiment can be described thus: Displacement of BODIPY-cyclopamine from human Smo expressed in HEK293 cells incubated for 3 hrs by fluorescence competitive displacement assay. Type of experiment: cell-based.
Sequence of Protein smoothened (Q99835 whole entry): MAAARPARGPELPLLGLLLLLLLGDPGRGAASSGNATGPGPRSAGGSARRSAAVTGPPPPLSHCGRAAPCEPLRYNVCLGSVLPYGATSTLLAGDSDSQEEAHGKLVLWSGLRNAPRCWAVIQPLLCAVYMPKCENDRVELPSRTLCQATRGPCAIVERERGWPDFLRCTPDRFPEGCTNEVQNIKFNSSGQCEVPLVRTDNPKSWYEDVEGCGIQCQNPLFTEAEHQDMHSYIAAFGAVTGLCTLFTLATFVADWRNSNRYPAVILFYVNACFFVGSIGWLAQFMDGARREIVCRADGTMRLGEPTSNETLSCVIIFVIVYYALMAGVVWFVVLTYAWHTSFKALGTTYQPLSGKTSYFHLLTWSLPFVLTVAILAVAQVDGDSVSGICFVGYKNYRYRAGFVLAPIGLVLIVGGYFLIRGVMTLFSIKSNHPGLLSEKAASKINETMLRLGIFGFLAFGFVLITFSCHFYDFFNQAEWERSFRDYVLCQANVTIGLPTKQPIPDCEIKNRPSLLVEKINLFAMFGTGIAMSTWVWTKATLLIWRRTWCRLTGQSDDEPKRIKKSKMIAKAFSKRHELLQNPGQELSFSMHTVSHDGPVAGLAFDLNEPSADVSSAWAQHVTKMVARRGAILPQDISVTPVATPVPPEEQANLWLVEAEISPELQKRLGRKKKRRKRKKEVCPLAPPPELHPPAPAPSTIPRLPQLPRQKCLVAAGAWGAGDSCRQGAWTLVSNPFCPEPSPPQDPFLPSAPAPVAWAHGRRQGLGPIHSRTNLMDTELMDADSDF

A word on the IC50: it is the point on the concentration scale where inhibition reaches its midpoint. Read a high IC50 as weaker potency in that assay.

`COc1ccc(N2CCN(C(=O)c3cc4c(s3)CCN(c3cccc(-c5nc6ccccc6n5C)c3)C4)CC2)cc1`: in experiment [1], the IC50 worked out at 1260 nM. The same measure, in the same setting: under `Cc1ccc(NC(=O)c2cc3c(s2)CCN(c2cccc(-c4nc5ccccc5n4C)c2)C3)cc1Cl` stands 310 nM.

Take `Cn1c(-c2cc(N3CCc4sc(C(=O)N5CCN(c6ccc(Cl)c(Cl)c6)CC5)cc4C3)ccc2Cl)nc2ccccc21`: the IC50 in experiment [1] is 160 nM; on Protein smoothened, 213 nM. `Cn1c(-c2cccc(N3CCc4sc(C(=O)N5CCN(c6ccc(F)cc6)CC5)cc4C3)c2)nc2ccccc21` displayed a half-maximal inhibitory concentration (IC50) in experiment [1] of 320 nM. On the same count and under the same terms, under `CC1CCCCN1C(=O)c1cc2c(s1)CCN(c1cccc(-c3nc4ccccc4n3C)c1)C2` (centres undefined) stands 330 nM; under `Cn1c(-c2cccc(N3CCc4sc(C(=O)N5CCN(C(=O)OC(C)(C)C)CC5)cc4C3)c2)nc2ccccc21`, 2080 nM; under `Cn1c(-c2cccc(N3CCc4sc(C(=O)N5CCN(c6cccc(Cl)c6)CC5)cc4C3)c2)nc2ccccc21`, 380 nM. As for `Cn1c(-c2cccc(N3CCc4sc(C(=O)N5CCOCC5)cc4C3)c2)nc2ccccc21`, the results for the IC50 (in experiment [1]; at Protein smoothened) were 210 nM and 294 nM, respectively. As to `Cn1c(-c2cccc(N3CCc4sc(C(=O)N5CCN(c6ccccc6)CC5)cc4C3)c2)nc2ccccc21`, the midpoint of inhibition in experiment [1], the IC50, lay at 1320 nM. Turning to `Cn1c(-c2cccc(N3CCc4sc(C(=O)N5CCC(O)CC5)cc4C3)c2)nc2ccccc21`, the half-inhibitory concentration (IC50) in experiment [1] is 280 nM; on Protein smoothened, 431 nM. `Cn1c(-c2cccc(N3CCc4sc(C(=O)N5CCN(C(=O)c6ccco6)CC5)cc4C3)c2)nc2ccccc21` registered an IC50 in experiment [1] of 490 nM. Same read-out and setting: as for `Cc1ccc(NC(=O)c2cc3c(s2)CCN(c2cccc(-c4nc5ccccc5n4C)c2)C3)cc1`, the figure is 1630 nM. Regarding `Cn1c(-c2cccc(N3CCc4sc(C(=O)N5CCN(C(c6ccccc6)c6ccccc6)CC5)cc4C3)c2)nc2ccccc21`, in experiment [1], the IC50 was greater than 15000 nM. For the molecule `Cn1c(-c2cc(N3CCc4sc(C(=O)N5CCN(c6ncccn6)CC5)cc4C3)ccc2Cl)nc2ccccc21`, the figures for the half-inhibitory concentration (IC50) (in experiment [1]; at Protein smoothened) were 90 nM and 92 nM, respectively.

In the case of `Cn1c(-c2cc(N3CCc4sc(C(=O)N5CCN(S(C)(=O)=O)CC5)cc4C3)ccc2Cl)nc2ccccc21`, the IC50 in experiment [1] worked out at 240 nM; at Protein smoothened it was 217 nM. Regarding `Cn1c(-c2cccc(N3CCc4sc(C(=O)Nc5ccc(Br)cc5)cc4C3)c2)nc2ccccc21`, in experiment [1], half-maximal inhibition (IC50) required 450 nM.

`CNC(=O)c1cc2c(s1)CCN(c1cccc(-c3nc4ccccc4n3C)c1)C2`: in experiment [1], the half-maximal inhibitory concentration (IC50) is 1410 nM. On the same count and under the same terms, under `Cn1c(-c2cccc(N3CCc4sc(C(=O)N5CCN(c6ccccn6)CC5)cc4C3)c2)nc2ccccc21` stands 340 nM.

Consider `Cn1c(-c2cccc(N3CCc4sc(C(=O)Nc5cccnc5)cc4C3)c2)nc2ccccc21`, for which the values for the half-inhibitory concentration (IC50) (in experiment [1]; at Protein smoothened) were 200 nM and 261 nM, respectively. For `Cn1c(-c2cc(N3CCc4sc(C(=O)N5CCCC5)cc4C3)ccc2Cl)nc2ccccc21` the same measures were 220 nM and 315 nM. Consider `CCN(CC)C(=O)c1cc2c(s1)CCN(c1cccc(-c3nc4ccccc4n3C)c1)C2`, for which the 50% inhibitory concentration (IC50) in experiment [1] came to 1340 nM. Turning to `Cn1c(-c2cccc(N3CCc4sc(C(=O)Nc5ccccc5F)cc4C3)c2)nc2ccccc21`, the IC50 in experiment [1] was 360 nM. Take `CN1CCN(C(=O)c2cc3c(s2)CCN(c2cccc(-c4nc5ccccc5n4C)c2)C3)CC1`: the half-inhibitory concentration (IC50) in experiment [1] turned out to be 170 nM; at Protein smoothened, 326 nM. In the case of `CCN1CCN(C(=O)c2cc3c(s2)CCN(c2cccc(-c4nc5ccccc5n4C)c2)C3)CC1`, in experiment [1], the IC50 was determined as 350 nM. Regarding `Cn1c(-c2cccc(N3CCc4sc(C(=O)N5CCN(c6cccc(C(F)(F)F)c6)CC5)cc4C3)c2)nc2ccccc21`, the half-inhibitory concentration (IC50) in experiment [1] stood at 1760 nM.

The molecule `CC(C)CNC(=O)c1cc2c(s1)CCN(c1cccc(-c3nc4ccccc4n3C)c1)C2` registered a 50% inhibitory concentration (IC50) in experiment [1] of 1720 nM. Same read-out and setting: under `CN(C)C(=O)c1cc2c(s1)CCN(c1cccc(-c3nc4ccccc4n3C)c1)C2` stands 1560 nM. Consider `Cn1c(-c2cccc(N3CCc4sc(C(=O)N5CCN(c6ccc(Cl)c(Cl)c6)CC5)cc4C3)c2)nc2ccccc21`, for which the IC50 in experiment [1] turned out to be 270 nM; at Protein smoothened, 456 nM. `COc1ccccc1N1CCN(C(=O)c2cc3c(s2)CCN(c2cccc(-c4nc5ccccc5n4C)c2)C3)CC1` returned an IC50 in experiment [1] of 2350 nM. With `Cn1c(-c2cccc(N3CCc4sc(C(=O)N5CCN(c6ccccc6F)CC5)cc4C3)c2)nc2ccccc21`, half-maximal inhibition in experiment [1] (IC50) required 760 nM. Take `Cn1c(-c2cccc(N3CCc4sc(C(=O)Nc5ccccc5)cc4C3)c2)nc2ccccc21`: in experiment [1], the IC50 came out at 850 nM. As for `Cn1c(-c2cccc(N3CCc4sc(C(=O)N5CCCC5)cc4C3)c2)nc2ccccc21`, the IC50 in experiment [1] came out at 260 nM; at Protein smoothened, 352 nM.

With `CC(=O)N1CCN(C(=O)c2cc3c(s2)CCN(c2cccc(-c4nc5ccccc5n4C)c2)C3)CC1`, it took 370 nM to reach half-maximal inhibition in experiment [1] (IC50). `Cn1c(-c2cc(N3CCc4sc(C(=O)Nc5cccnc5)cc4C3)ccc2Cl)nc2ccccc21`: the 50% inhibitory concentration (IC50) worked out at 140 nM in experiment [1] and 56 nM on Protein smoothened. Take `Cn1c(-c2cccc(N3CCc4sc(C(=O)N5CCN(c6ncccn6)CC5)cc4C3)c2)nc2ccccc21`: the half-maximal inhibitory concentration (IC50) is 150 nM in experiment [1] and 237 nM on Protein smoothened.

Consider `CS(=O)(=O)c1ccc(C(=O)Nc2ccc(Cl)c(-c3ccccn3)c2)c(Cl)c1` [VISMODEGIB], for which the IC50 in experiment [1] came out at 25 nM. Take `Cn1c(-c2cc(N3CCc4sc(C(=O)N5CCC(O)CC5)cc4C3)ccc2Cl)nc2ccccc21`: the IC50 in experiment [1] came out at 190 nM; at Protein smoothened, 192 nM. The corresponding values for `Cn1c(-c2cc(N3CCc4sc(C(=O)N5CCOCC5)cc4C3)ccc2Cl)nc2ccccc21` are 60 nM and 18 nM. As to `COc1cccc(NC(=O)c2cc3c(s2)CCN(c2cccc(-c4nc5ccccc5n4C)c2)C3)c1`, it took 660 nM to reach half-maximal inhibition in experiment [1] (IC50).

Take `Cn1c(-c2cccc(N3CCc4sc(C(=O)N5CCN(S(C)(=O)=O)CC5)cc4C3)c2)nc2ccccc21`: the figures for the half-inhibitory concentration (IC50) (in experiment [1]; at Protein smoothened) were 220 nM and 373 nM, respectively. The molecule `Cn1c(-c2cccc(N3CCc4sc(C(=O)Nc5ccc(F)c(F)c5)cc4C3)c2)nc2ccccc21` displayed a 50% inhibitory concentration (IC50) in experiment [1] of 270 nM. For `CN1CCN(C(=O)c2cc3c(s2)CCN(c2ccc(Cl)c(-c4nc5ccccc5n4C)c2)C3)CC1`, the half-inhibitory concentration (IC50) in experiment [1] amounted to 130 nM; on Protein smoothened, 135 nM. As for `Cn1c(-c2cccc(N3CCc4sc(C(=O)Nc5ccc(F)c(Br)c5)cc4C3)c2)nc2ccccc21`, it took 350 nM to reach half-maximal inhibition in experiment [1] (IC50).
